Laboratory results from publication PMC8175851, “Effects of Genetic Polymorphism in CYP2D6, CYP2C19, and the Organic Cation Transporter OCT1 on Amitriptyline Pharmacokinetics in Healthy Volunteers and Depressive Disorder Patients” (Frontiers in Pharmacology, 2021).
Read-outs that look alike come from different tables or passages of the source.

How the values were obtained:
[1] = Pharmacokinetics of AT and NT in healthy volunteers after a single dose of 25 mg amitriptyline; type: in vivo, human; settings: healthy volunteers; for Tmax / half-life / AUC(0-inf) / Cmax / AUC(0-t): human, plasma, po, 25 mg; for Tmax / half-life / AUC(0-inf) / Cmax / Vz / CL / AUC(0-t): single oral 25 mg AT; for AUC(0-inf): read-out: AUCinf; for AUC(0-t): read-out: AUC48h
Excerpt: In order to enrich the study sample with the less frequent functionally deficient OCT1 variants, participants were selected based on OCT1 genotype from an internal database at the Institute of Clinical Pharmacology of the University Medical Center Göttingen. All volunteers who are listed in the internal database had agreed to it and the database was approved by the ethics committee of the University of Göttingen. […] Additional subjects with heterozygous genotypes were included to provide a better understanding of the effects of specific variants and the mode of inheritance. All volunteers gave their written informed consent before participation in the study. The study was approved by the ethics committee of the University of Göttingen and the German Federal Institute for Drugs and Medical Devices (BfArM). It was registered at the clinical trials databases Clinicaltrials.gov (NCT02054299) and EudraCT (number 2012-003546-33). […] Volunteers who underwent regular drug treatments other than oral contraceptives or who suffered from any relevant chronic illness, as well as pregnant or lactating women, were not included. All subjects were healthy according to a detailed medical history, medical examination, electrocardiogram, urine status and clinical chemistry, and haematology parameters (sodium, potassium, total bilirubin, aspartate aminotransferase, alanine-aminotransferase, creatinine, C-reactive protein, thyroid-stimulating hormone, haemoglobin, erythrocyte, thrombocyte, and leucocyte counts). […] After centrifugation (13,000 rpm, 15 min, room temperature), two-thirds of the supernatant were transferred to a new reaction tube and evaporated at 40°C under nitrogen flow. The residue was reconstituted under shaking in 0.1% methanoic acid and briefly centrifuged before quantification using a Nexera UHPLC system (Shimadzu, Kyoto, Japan) coupled to an API 4000 tandem mass spectrometer (AB Sciex, Darmstadt, Germany). […] PerkinElmer, Rodgau, Germany) with a Phenomenex C18 pre-column (4 × 2 mm, Phenomenex, Aschaffenburg, Germany). […] The lower limit of quantification was 0.5 ng/ml for AT and 0.1 ng/ml for NT. […] The mass spectrometry detection parameters are listed in Supplementary Table S1. For the study in healthy volunteers, the primary endpoints were the AUCs of plasma AT and NT concentrations. Secondary endpoints were the other pharmacokinetic parameters of AT and NT, as well as heart rate, blood pressure, pupil size effects, and possible adverse events (headache, fatigue, visual or hearing impairments, restlessness, nausea, dizziness, dry mouth, tremor, as well as sensations of hypothermia and heart palpitations determined using a visual analogue scale test). Pharmacokinetic parameters were calculated by non-compartmental analysis using Phoenix 64 WinNonlin version 6.3 (Certara Inc., Princeton, NJ, United States). AUCinf of AT was calculated from the time of dosing using the linear/log trapezoidal rule and extrapolated to infinity based on the last predicted concentration and using the terminal elimination rate constant (lambda z). AUC of NT was calculated from the time of dosing until the last measurement at 48 h using the linear/log trapezoidal rule, as a decline in NT concentrations was not observed in some subjects and extrapolation to infinity thus not possible.

[2] = Plasma concentrations per dose unit of AT and NT in depressive disorder patients (75 mg AT twice daily); type: in vivo, human; settings: 12-hour-trough levels
Description: Briefly, 75 mg AT was administered twice daily at 12 h dosing intervals. Any drugs or dietary ingredients that might interfere with CYP2D6 or CYP2C19 metabolism were avoided whenever possible. Blood samples (12-hour-trough levels) were taken on days 0, 7, 14, 18, and 21, centrifuged, and stored at 4°C for genotyping (CYP2D6 and CYP2C19) and concentration analyses. The blood samples were subsequently stored at −20°C and later genotyped for OCT1.
The serum concentrations in depressive disorder patients were determined either by the Emit® immunoassay specific for AT and NT or a commercial high-performance liquid chromatography assay (Bio-Rad Laboratories GmbH, Feldkirchen, Germany), as described before ([Steimer et al., 2004]; [Steimer et al., 2005]).
The correlation between AT and NT plasma AUC (study in healthy volunteers) or mean plasma concentration per dose unit (study in depressive disorder patients) and OCT1, CYP2D6, and CYP2C19 genotypes were calculated using the Jonckheere-Terpstra non-parametric analysis, which takes into consideration the a priori ordering (or trend) in gene activities from zero to normal to ultra-rapid (for CYP2C19 and CYP2D6). To do so, the genotypes were categorized into 0, 1, or 2 active alleles for OCT1, into 0, 0.5, 1, 1.5, 2, 2.5, or 3 active alleles for CYP2D6, and into 0, 1, 1.5, 2, 2.5, or 3 active alleles for CYP2C19, depending on their known effects on transporter/enzyme activity. OCT1 alleles *2, *3, *4, *5 were classified as being zero active. […] A semi-quantitative gene dosage was calculated for CYP2D6, as has been described earlier ([Steimer et al., 2004]). For calculating a CYP2C19 activity score, CYP2C19*2 was regarded as zero active, CYP2C19*1 was classified as 1, and CYP2C19*17 as 1.5. Additional multiple linear regression analyses included sex, age, body mass index, and glomerular filtration rate.

[3] = both sexes, CYP2D6 activity 2 (n = 11), mean
[4] = both sexes, CYP2D6 activity 2.5 (n = 1), mean
[5] = both sexes, CYP2D6 activity 3 (n = 2), mean
[6] = CYP2C19 activity score 0 (n = 1), mean
[7] = CYP2C19 activity score 3 (n = 1), mean

CN(C)CCC=C1c2ccccc2CCc2ccccc21 [Amitriptyline, amitriptyline]
Tmax [1, 3]: 3.4 h
half-life [1, 3]: 19.5 h
Tmax [1, 4]: 6 h
half-life [1, 4]: 14 h
Tmax [1, 5]: 2 h
half-life [1, 5]: 20.6 h
AUC(0-inf) ([1]; both sexes, OCT1 genotype *1 / *1 (n 14), mean ± standard deviation): 243 ± 88 ng·h/mL
AUC(0-inf) ([1]; both sexes, OCT1 genotype *1 / *2 (n 3), mean ± standard deviation): 273 ± 59 ng·h/mL
AUC(0-inf) ([1]; both sexes, OCT1 genotype *1 / *3 (n 4), mean ± standard deviation): 216 ± 87 ng·h/mL
AUC(0-inf) ([1]; both sexes, OCT1 genotype *1 / *4 (n 2), mean ± standard deviation): 187 ± 49 ng·h/mL
AUC(0-inf) ([1]; both sexes, OCT1 genotype *2 / *2 (n 3), mean ± standard deviation): 202 ± 92 ng·h/mL
AUC(0-inf) ([1]; both sexes, OCT1 genotype *2 / *3 (n 4), mean ± standard deviation): 189 ± 53 ng·h/mL
AUC(0-inf) ([1]; both sexes, OCT1 genotype *2 / *5 (n 1)): 298 ng·h/mL
AUC(0-inf) ([1]; both sexes, OCT1 genotype *3 / *3 (n 3), mean ± standard deviation): 172 ± 28 ng·h/mL
AUC(0-inf) ([1]; both sexes, OCT1 genotype *3 / *4 (n 1)): 215 ng·h/mL
Cmax ([1]; both sexes, read-out: average Cmax): 39 nM
Cmax ([1]; both sexes, read-out: average Cmax (average peak plasma concentration)): 10.7 ng/mL
peak concentration of unbound AT ([1]; 25 mg AT, from peak plasma concentration with 95% plasma protein binding): 0.54 µg/L
Vz ([1]; 0 active OCT1 alleles (n = 12)): 3,828 ± 800 L
Vz ([1]; 1 active OCT1 allele (n = 9)): 3,610 ± 1,633 L
Vz ([1]; 2 active OCT1 alleles (n = 14)): 3,401 ± 1,041 L
CL ([1]; CL/F = dose/AUCinf, 0 active OCT1 alleles (n = 12)): 2.3 ± 0.6 L/min
CL ([1]; CL/F = dose/AUCinf, 1 active OCT1 allele (n = 9)): 2.0 ± 0.8 L/min
CL ([1]; CL/F = dose/AUCinf, 2 active OCT1 alleles (n = 14)): 1.9 ± 0.6 L/min
CL ([1]; CL/F, CYP2C19 activity score 0 (n = 1), mean): 1.30 L/min
CL ([1]; CL/F, CYP2C19 activity score 1 (n = 5), mean): 1.94 L/min
CL ([1]; CL/F, CYP2C19 activity score 1.5 (n = 2), mean): 1.5 L/min
CL ([1]; CL/F, CYP2C19 activity score 2 (n = 16), mean): 2.1 L/min
CL ([1]; CL/F, CYP2C19 activity score 2.5 (n = 10), mean): 2.2 L/min
CL ([1]; CL/F, CYP2C19 activity score 3 (n = 1), mean): 1.54 L/min
CL ([1]; CL/F, CYP2D6 activity 0 (n = 3), mean): 1.45 L/min
CL ([1]; CL/F, CYP2D6 activity 0.5 (n = 2), mean): 2.09 L/min
CL ([1]; CL/F, CYP2D6 activity 1 (n = 10), mean): 1.81 L/min
CL ([1]; CL/F, CYP2D6 activity 1.5 (n = 6), mean): 2.03 L/min
CL ([1]; CL/F, CYP2D6 activity 2 (n = 11), mean): 2.25 L/min
CL ([1]; CL/F, CYP2D6 activity 2.5 (n = 1), mean): 2.64 L/min
CL ([1]; CL/F, CYP2D6 activity 3 (n = 2), mean): 2.92 L/min
Vz [1, 6]: 3,004 L
Vz ([1]; CYP2C19 activity score 1 (n = 5), mean): 3,525 L
Vz ([1]; CYP2C19 activity score 1.5 (n = 2), mean): 2,559 L
Vz ([1]; CYP2C19 activity score 2 (n = 16), mean): 3,696 L
Vz ([1]; CYP2C19 activity score 2.5 (n = 10), mean): 3,740 L
Vz [1, 7]: 3,762 L
Vz ([1]; CYP2D6 activity 0 (n = 3), mean): 2,982 L
Vz ([1]; CYP2D6 activity 0.5 (n = 2), mean): 4,189 L
Vz ([1]; CYP2D6 activity 1 (n = 10), mean): 3,269 L
Vz ([1]; CYP2D6 activity 1.5 (n = 6), mean): 3,446 L
Vz ([1]; CYP2D6 activity 2 (n = 11), mean): 3,768 L
Vz ([1]; CYP2D6 activity 2.5 (n = 1), mean): 3,192 L
Vz ([1]; CYP2D6 activity 3 (n = 2), mean): 5,361 L
AUC(0-t) [1, 6]: 229 ng·h/mL
AUC(0-inf) [1, 6]: 321 ng·h/mL
Cmax ([1]; CYP2C19 activity score 0 (n = 1), mean, read-out: Cmax): 11.5 ng/mL
AUC(0-t) [1, 7]: 198 ng·h/mL
AUC(0-inf) [1, 7]: 271 ng·h/mL
Cmax ([1]; CYP2C19 activity score 3 (n = 1), mean, read-out: Cmax): 13.9 ng/mL
Tmax [1, 6]: 4 h
half-life [1, 6]: 26.7 h
Tmax [1, 7]: 2 h
half-life [1, 7]: 28.3 h
Mean plasma concentration per dose unit ([2]; OCT1 genotype *1 / *1 (n 27), mean ± standard deviation): 37.3 ± 15.9
Mean plasma concentration per dose unit ([2]; OCT1 genotype *1 / *2 (n 14), mean ± standard deviation): 44.0 ± 15.2
Mean plasma concentration per dose unit ([2]; OCT1 genotype *1 / *3 (n 2), mean ± standard deviation): 56.9 ± 36.0
Mean plasma concentration per dose unit ([2]; OCT1 genotype *1 / *4 (n 1)): 38.7
Mean plasma concentration per dose unit ([2]; OCT1 genotype *2 / *2 (n 3), mean ± standard deviation): 47.6 ± 15.4
Mean plasma concentration per dose unit ([2]; OCT1 genotype *2 / *3 (n 2), mean ± standard deviation): 52.6 ± 31.9
Mean plasma concentration per dose unit ([2]; OCT1 genotype *3 / *3 (n 1)): 53.9
